From PMC6943423, “Structure-Activity Study of an All-D Antimicrobial Octapeptide D2D” (Molecules, 2019)
Square brackets hold non-standard residues; d marks the D form. Peptide text beside a SMILES is read from it. d1Nal = N[C@H](Cc1cccc2ccccc12)C(=O)O; dNle = CCCC[C@@H](N)C(=O)O

Assays:
A. baumannii 19606 = test: Time-kill kinetics, A. baumannii; type: cell-based, Acinetobacter baumannii; conditions: 5 × MIC, exponentially growing cells 1 × 10^8, A. baumannii 19606
Description: (§1) The time kill experiments were performed by treating exponentially growing cultures with D2D and compound 5. Overnight cultures grown in MHB-II media, were diluted 1:10.000 to ensure exponentially growing cultures (8–10 generations), before cultures reached 1 × 10^8 CFU approximately OD600 = 0.1. When cultures reached 1 × 10^8 they were split into blood glass tubes containing 3 mL each and then treated with the respective drugs at the concentrations as shown in Figure 3. Sampling was performed at 0, 1, 3, 5 and 24 h, by removing 250 µL culture. Samples were spun down at 4000 G for 5 min and supernatant removed, cells were washed in 1 mL 0.9% NaCl, spun down again, before being suspended in 250 µL 0.9% NaCl. Finally, 10 fold dilution series were prepared in 0.9% NaCl. From these 10 µL were spotted (in triplicate) onto LB agar. CFU were counted after 24 h incubation at 37 °C. Experiments were performed in triplicate from individual colonies. Data analysis was performed using GraphPad prism 5 and plotted as the mean of triplicated with standard deviation.

S. aureus 29213 = test: Time-kill kinetics, S. aureus; type: cell-based, Staphylococcus aureus; conditions: for reduction in viable cells: 5 × MIC, exponentially growing cells 1 × 10^8, S. aureus 29213
Description: as §1

E. coli 25922 = test: Time-kill kinetics, E. coli; type: cell-based, Escherichia coli; conditions: 5 × MIC, exponentially growing cells 1 × 10^8, E. coli 25922
Description: as §1

[1] = Peptide self-assembly nanostructure in solution by SAXS; type: physicochemical; conditions: for nanostructure in solution (self-assembly, SAXS model): lab SAXS, 50 mM Tris buffer pH 7.4, 2.5–10 mg/mL, ambient temperature; for outer radius of hollow nano-tubes: values in Å; for shell thickness of hollow nano-tubes: values in Å
Description: SAXS experiments of D2D and the alanine-scan (compounds 1–8) were performed using a Bruker NANOSTAR equipped with a microfocus X-ray source (IμS Cu, InCoatec, Germany) and a VÅNTEC-2000 detector. Raw scattering data was calibrated to absolute intensity scale using water as a primary standard and radially averaged in order to obtain the 1D scattered intensity profile as a function of the scattering vector q (q = 4 π sin (θ/2)/λ), where θ is the scattering angle and λ is the X-ray wavelength of 1.54 Å. The samples were dissolved in 50 mM Tris buffer, pH 7.4 (10 mg/mL, 5 mg/mL and 2.5 mg/mL) and injected manually into a temperature-controlled quartz cell located in a vacuum chamber and measured for 180 min.
The scattering of the peptide D2D was analysed using a random polymer-like chain model:(1) Ichain(q)=ϕ·Vp·Δρ^2·Pchain(q) where ϕ is the volume fraction of the peptide, Vp is the volume of the polymer, Δρ is the excess scattering length density and Pchain(q) is the form factor of the free peptide chains given by the Debye expression for Gaussian chains:(2) gPchain(q)=2·exp[−(qRg)^2]−1+(qRg)^2/(qRg)^4 where Rg is the radius gyration of the peptide chains.
The scattering for compounds 2 and 7 was analysed using a rectangular sheet like model:(3) Isheet(q)=ϕ·Vp·Δρ^2·Np·Psheet(q)
Under the assumption that the length of the peptide sheets are much greater than the lateral dimension, i.e., c >> a, b, the form factor Psheet(q) is given by (4) Psheet(q)=Fc(q)1/2π∫02πAsheet(q, α)^2dα where the amplitude is given by (5) Asheet(q,α)=sin(qb cos(α)/2)/qb cos(α)/2· sin(qa sin(α)/2) /qa sin(α)/2) and (6) Fc(q)=(2 Si(qc)/(qc)−4 sin^2(qc/2)/(qc)^2 where Si(x)=∫0xt^−1sint dt .
The expression for the absolute scattering intensity, from this structure can be written as:(7) Inanotube(q)=ϕ·P·Vtot·Δρ^2·P(q)L·A(q)cs2·DW(q) where ϕ is the volume fraction of the peptide, P is the aggregation number given by P π(Ro2−Ri2)L/Vp where Vp is the volume of a peptide chain, Ro is the outer radius and Ri is the inner radius of the tubes, and L is the length. A(q)cs2 is given by:(8) A(q)cs2=Ro2A(q,Rc)−Rin2A(q,Ri)/(Ro2−Ri2) where A(q,x)=2J1(q·x)/(q·x) and J1(x) is the first order Bessel function.
The longitudinal form factor P(q)L is given by:(9) P(q)L=2 Si(QL)/QL −4 sin(sin^2(QL/2)/(QL)^2 where L is the length of the nanotubes and Si(x) is the Sine-function.
In addition, we introduced a slight distribution in the inner radius for possible shape fluctuations, and a Debye Waller factor, DW(q) = exp(−q^2 σ^2), describing possible surface roughness of the inner and outer wall.

human red blood cells = test: Hemolytic activity; type: cell-based
Description: The percentage of hemolysis at 150 μM was determined for all compounds as previously described. Briefly, two-fold serial dilutions (2.35 to 150 μM) of compounds in PBS were mixed with a 0.5% v/v suspension of fresh human red blood cells (RBC) in the same buffer. After 1 h incubation at 37 °C, plates were centrifuged and aliquots of the supernatants were transferred to clear ELISA plates. Absorbance at 414 nm was determined and normalised with respect to a negative (PBS, 0%) and positive (melittin, 100%) control.

[2] = Lipid-peptide interaction by synchrotron SAXS; conditions: SAXS fit parameter, fit error < 5%
Text: For preparation of unilamellar lipid vesicles, synthetic DMPC (1,2-dimyristoyl-sn-glycero-3-phosphocholine), DMPG (1,2-dimyristoyl-sn-glycero-3-phospho-(10-rac-glycerol)), and DMPE-PEG (1,2-dimyristoyl-sn-glycero-3-phosphoethanolamine-N-[methoxy(polyethylene glycol)-2000]) (from Avanti Polar Lipids) were used in the molar ratio 9:7.5:2.5. The lipids were first dissolved in a 1:3 methanol:chloroform solution, and then the organic solvents were removed completely under vacuum using a Heidolph rotary evaporator with a Vacuubrand vacuum pump. The resulting lipid film was hydrated with 50 mM Tris buffer, pH 7.4, for at least one hour at 35 °C. After sonication for 10 min, the lipid dispersions were extruded through a 100 nm pore diameter polycarbonate filter (21 times) using an Avanti mini-extruder fitted with two 1 mL airtight syringes. Immediately before the SAXS experiment, a peptide solution with the adequate concentration for the target lipid:peptide ratio was mixed 1:1 with the lipid solution (1:1) using a micropipette.
SAXS experiments of the peptide-lipid mixes were performed at the automated BM29 bioSAXS beamline at the European Synchrotron Radiation Facility (ESRF) in Grenoble, France. The data was obtained using an energy of 12.5 keV and a detector distance of 2.87 m, covering a q range of about 0.0047 Å^−1 to 0.5 Å^−1. The data set was calibrated to an absolute intensity scale using water as a primary standard. 40 µL samples were run through a capillary using the flow mode of the automated sample changer. SAXS data was collected in ten successive frames of 0.5 s each to monitor radiation damage and the data reduction was done using the standard tool at BM29 [37].
The SAXS results of the lipid-peptide mixes were analysed using the theoretical model described in detail in [29]. In short, the model provides a detailed description of the membrane by dividing into probability functions for each component (lipid sub-units/peptide) across the bilayer.

[3] = tested on: A. baumannii (ATCC 19606); type: cell-based, Acinetobacter baumannii; conditions: broth microdilution, MHB-II, ~5 × 10^5 CFU, 18–20 h at 37 °C, triplicate
Description: (§2) E. coli (ATCC 25922), S. aureus (ATCC 29213), P. aeruginosa (ATCC 27853) and A. baumannii (ATCC 19606).
(§3) Antimicrobial susceptibility testing was performed by broth dilution in MHB-II media using a protocol adapted from, with minor modifications. Briefly, the compounds were prepared in standard stocks of 1 mg/mL in milli-Q H2O. Antimicrobial dilutions were prepared in two times the final concentration (128 µg/mL) of the compounds. Bacterial suspensions were prepared from overnight cultures (MHB-II) by diluting to OD600 = 0.001 (Approximately 1 × 10^6 CFU). An amount of 100 µL MHB-II was transferred to all wells in column 1–9, excluding the antibiotics well (A1–A9). An amount of 200 µL of MHB-II was transferred to all wells in column 10–12. An amount of 200 µL peptide stock was transferred to each well from A1–9. A 2-fold serial dilution from row A–G was obtained by transferring 100 µL from row A to B, and continued until row G. Resulting in final concentration range of peptides: 128, 64, 32, 16, 8, 4, and 2 (µg/mL). Finally, 100 µL bacterial suspension (1 × 10^6 CFU) were added to all wells giving a final bacterial inoculum of approximately 5 × 10^5 colony forming units (CFU). The plates were incubated for 18–20 h at 37 °C.

E. coli (ATCC 25922) = type: cell-based, Escherichia coli; conditions: broth microdilution, MHB-II, ~5 × 10^5 CFU, 18–20 h at 37 °C, triplicate
Description: as §2, §3

[4] = tested on: P. aeruginosa (ATCC 27853); type: cell-based, Pseudomonas aeruginosa; conditions: broth microdilution, MHB-II, ~5 × 10^5 CFU, 18–20 h at 37 °C, triplicate
Description: as §2, §3

S. aureus (ATCC 29213) = type: cell-based, Staphylococcus aureus; conditions: broth microdilution, MHB-II, ~5 × 10^5 CFU, 18–20 h at 37 °C, triplicate
Description: as §2, §3

P. aeruginosa 27853 = test: Time-kill kinetics, P. aeruginosa; type: cell-based, Pseudomonas aeruginosa; conditions: 5 × MIC, exponentially growing cells 1 × 10^8, P. aeruginosa 27853
Description: as §1

[5] = cited from earlier work
Text: (§4) In the present study, we investigated all-D-peptides. […] For example, Mana ...

S. aureus = conditions: cited from earlier work
Text: as §4

[6] = SAXS nanotube model fit, 50 mM Tris pH 7.4, 2.5–10 mg/mL
[7] = fraction peptide 1:10 (peptide 5: joint SAXS/SANS fit)

Molecule	reduction in number of viable cells (A. baumannii 19606)	reduction in viable cells (S. aureus 29213) [log]	reduction in CFU/mL (S. aureus 29213; S. aureus, concentration not stated (conclusions)) [log]	reduction in number of viable cells (E. coli 25922)	outer radius of hollow nano-tubes [1, 6] [Å]	shell thickness of hollow nano-tubes [1, 6] [Å]	nanostructure in solution (self-assembly, SAXS model) [1]	%H (% Hemolysis at 150 µM) (human red blood cells; red cells of human, 1 h, 150) [%]	ffree peptide ([2]; fraction peptide 1:5)	ffree peptide [2, 7]	ffree peptide ([2]; fraction peptide 1:20)	Minimum Inhibitory Concentration A.B. [3] [µg/mL]	Minimum Inhibitory Concentration E.C. (E. coli (ATCC 25922)) [µg/mL]	Minimum Inhibitory Concentration P.A. [4] [µg/mL]	%H (% Hemolysis at 150 µM) (human red blood cells; 150 µM in PBS, 0.5% v/v fresh human RBC, 1 h at 37 °C, absorbance 414 nm, normalised to PBS (0%) and melittin (100%)) [%]	Minimum Inhibitory Concentration S.A. (S. aureus (ATCC 29213)) [µg/mL]	killing of viable cells (P. aeruginosa 27853) [log]	activity relative to its L-enantiomer (more active) [5]	antimicrobial activity against S. aureus (S. aureus) [µg/mL]
CCCC[C@@H](NC(=O)[C@@H](CCCCN)NC(=O)[C@@H](Cc1cccc2ccccc12)NC(=O)[C@@H](C)NC(=O)[C@@H](Cc1ccccc1)NC(=O)[C@@H](Cc1cccc2ccccc12)NC(=O)[C@@H](CCCCN)NC(=O)[C@H](N)CCCCN)C(N)=O [Compound 5, kk(1-nal)fa(1-nal)k(nle)-NH2] (H-[dK][dK][d1Nal][dF][dA][d1Nal][dK][dNle]-NH2)	4–5 logs	5	> 3	4–5 logs	33	4	hollow nano-tubes	47	0.4	0.5	0.5								
CCCC[C@@H](NC(=O)[C@@H](CCCCN)NC(=O)[C@@H](Cc1cccc2ccccc12)NC(=O)[C@@H](CCCCN)NC(=O)[C@H](N)Cc1ccccc1)C(N)=O [Compound 29, fk(1-nal)k(nle)-NH2] (HELM PEPTIDE1{[dF].[dK].[O=C([C@@H](Cc1cccc2ccccc12)N[*:1])[*:2]].[dK].[CCCC[C@@H](N[*:1])C(=O)[*:2]].[am]}$$$$V2.0; N-terminus assumed)												>128	>128	128	12	>128			
CCCC[C@@H](NC(=O)[C@@H](CCCCN)NC(=O)[C@@H](Cc1cccc2ccccc12)NC(=O)[C@@H](CCCCN)NC(=O)[C@@H](Cc1ccccc1)NC(=O)[C@@H](Cc1cccc2ccccc12)NC(=O)[C@@H](CCCCN)NC(=O)[C@H](N)CCCCN)C(N)=O [Compound D2D, kk(1-nal)fk(1-nal)k(nle)-NH2] (H-[dK][dK][d1Nal][dF][dK][d1Nal][dK][dNle]-NH2)	4–5 logs	5		4–5 logs			random unstructured polymer-like chains	23	0.7	0.51	0.5						1	approximately four-fold	
KLKLLLLLKLK-NH2 [sapesin B analog (L-form), literature peptide of Manabe et al]																			16
